Values joined by “and” are separate entries in the source; they are usually repeats but may differ in a detail not shown here. Identical values can stand only once. “Also recorded” adds a separate entry of the source. Like-named read-outs stand apart in the source and are kept apart here.
Key:
[1] = cited from earlier work
TrxR/Trx system = target: T1, TrxR/Trx system (Homo sapiens, UniProt P10599); test: TrxR/Trx NADPH oxidation assay; format: biochemical
T1 construct: purchased Sigma (Trx); American Diagnostica (bovine TrxR)
T1 sequence (P10599 1-105): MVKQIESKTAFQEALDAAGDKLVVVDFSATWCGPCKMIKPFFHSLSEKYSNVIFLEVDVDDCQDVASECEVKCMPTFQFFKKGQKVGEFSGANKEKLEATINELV
From the text: (Note: error bars are small and may be obscured by the symbols). […] (Note: error bars were omitted but assays were run in quadruplicate with typical errors of 5-8% between individual replicates). […] Panel D: Initial velocity reaction rates corresponding to progress curves shown in Panel C. With time, Trx-mesna and Trx-GSH are converted back to apo-Trx by Trx reductase (see also, FIG. 69, Panel E).

recombinant human Prx 1 = recombinant human Prx 1 (Homo sapiens, UniProt Q06830); test: Prx assay coupled to Trx, TrxR and NADPH; format: biochemical; conditions: initial velocity
Method: Prx activity in the buffer control (Apo-Prx) and the Tavocept-treated sample (Prx-mesna) was determined using the Prx assay outlined in FIG. 58. A typical assay mixture was 150 μL in final volume and contained HEPES Buffer (45 mM, pH 7.0, 1 mM EDTA), 350 μM NADPH, 0.12 μM rat liver TrxR, 80 μM insulin, 2.9 μM human Trx 1, and Prx (4.8 or 2.4 μM per assay). Assays were initiated by the addition of H2O2 (100 μM) and were monitored at 340 nm at 25° C. for 30 minutes using a using a Molecular Devices SpectraMax Plus UV/vis plate reader. Activity was calculated using a 4 minute linear portion of each assay and then this rate was converted into percent of control with the buffer treated Prx 1 reaction (Apo-Prx) serving as a 100% control. See, FIG. 59. […] This reduction in rate is approximately 43% in assays containing 2.4 μM Prx and 23% in assays containing 4.8 μM Prx. See, FIG. 59. […] Therefore, as the concentration of unmodified Prx increases, the turnover more nearly approaches the buffer control Apo-Prx samples.

[2] = target: T2, Mesenchymal Epithelial Transition (MET) Factor Kinase (Homo sapiens, UniProt P08581); test: MET kinase activity (summary Table 27); format: biochemical
T2 construct: the kinase domain of MET (residues 956-end) was used in these experiments; GST (N); purchased SignalChem M52-18G-10; host or cells: Sf9

Recombinant human ERCC1 = target: T3, Recombinant human ERCC1 (Homo sapiens, UniProt P07992); test: LC-MS of trypsin-digested ERCC1 after incubation with Tavocept; format: binding; conditions: 20 mM Tavocept, LC-MS of tryptic fragments
T3 construct: 6xHis (N); purchased Creative BioMart; host or cells: E. coli
Method: Recombinant human ERCC1 (1 mg; 27.8 nanomoles, Creative BioMart) was reduced using a vast excess of dithiothreitol (DTT, 100 μl of a 500 mM stock) in ammonium bicarbonate (40 mM, pH 8.0) at 37° C. for 75 minutes (total reaction volume was 900 μL). […] Each 800 μl reaction was then chromatographed over a NAP10 column. This step removed unreacted Tavocept and was used for the buffer control simply to ensure that both samples received the same handling/manipulation during the course of the experiment. The elution volume from each NAP10 column was 1.2 mL. […] Trypsin digestion reactions were incubated for 1 hour at 30° C. and then for 17 hours at room temperature (23° C.). Following the Trypsin digest, the samples were lyophilized to dryness overnight and then resuspended in a volume of approximately 100 μL water and analyzed using LC-MS. A Symmetry C18 HPLC column (Waters, Franklin, Mass.; 3.5 μm; 4.6 mm×75 mm) and a Waters Alliance liquid chromatography system (Waters 2695, Franklin, Mass., USA) coupled to a Micromass single quadropole mass detector (Micromass ZMD, Manchester, UK) were used to analyze fragments from trypsin-digested human ERCC1. The mobile phase contained 0.1% of formic acid throughout the run and the flow rate was 0.35 mL/min. […]

Peroxiredoxin (Prx) = target: T4, Peroxiredoxin (Prx) (Homo sapiens, UniProt Q06830); test: Peroxiredoxin activity (summary Table 27); format: biochemical
T4 construct: purchased SigmaAldrich
T4 sequence (Q06830 whole entry): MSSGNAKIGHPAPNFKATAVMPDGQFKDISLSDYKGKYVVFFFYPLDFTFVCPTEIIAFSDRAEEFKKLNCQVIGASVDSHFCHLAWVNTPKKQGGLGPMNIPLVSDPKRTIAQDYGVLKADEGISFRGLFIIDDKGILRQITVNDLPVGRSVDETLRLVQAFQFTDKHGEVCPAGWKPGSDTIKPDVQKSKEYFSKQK

T3 sequence (P07992 whole entry, the tested form may be a part): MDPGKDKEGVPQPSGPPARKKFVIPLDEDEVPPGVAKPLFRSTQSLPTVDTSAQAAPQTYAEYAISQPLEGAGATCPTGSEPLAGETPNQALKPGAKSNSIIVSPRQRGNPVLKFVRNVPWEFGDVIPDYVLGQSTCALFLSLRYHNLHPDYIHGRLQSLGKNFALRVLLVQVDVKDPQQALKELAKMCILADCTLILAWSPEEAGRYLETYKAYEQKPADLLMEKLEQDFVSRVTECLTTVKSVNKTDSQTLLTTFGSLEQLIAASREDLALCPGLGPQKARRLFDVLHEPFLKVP
recombinant human Prx 1, sequence (Q06830 whole entry): as the sequence (Q06830 whole entry) above
T2 sequence (P08581 956-1390 limits assumed): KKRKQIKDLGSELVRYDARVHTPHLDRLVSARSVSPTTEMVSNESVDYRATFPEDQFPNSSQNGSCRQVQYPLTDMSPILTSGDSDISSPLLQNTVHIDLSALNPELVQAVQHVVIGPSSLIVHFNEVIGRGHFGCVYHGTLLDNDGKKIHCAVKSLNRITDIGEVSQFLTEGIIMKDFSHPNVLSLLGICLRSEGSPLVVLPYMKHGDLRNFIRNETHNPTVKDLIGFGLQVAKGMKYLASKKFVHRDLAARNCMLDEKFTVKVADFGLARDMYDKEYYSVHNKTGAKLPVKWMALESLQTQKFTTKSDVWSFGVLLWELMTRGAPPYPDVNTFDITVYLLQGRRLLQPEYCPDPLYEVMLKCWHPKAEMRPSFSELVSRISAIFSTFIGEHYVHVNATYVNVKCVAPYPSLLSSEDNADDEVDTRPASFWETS

In the case of `O=S(=O)([O-])CCSSCCS(=O)(=O)[O-].[Na+].[Na+]` [Tavocept, disodium 2,2′-dithio-bis-ethane sulfonate], the Tavocept in plasma ([1]; 41 g/m^2 Tavocept) is given as about 14 mM, the “concentrations of Tavocept achieved in the clinic” value ([1]; as high as) is given as at most 18000 µM and the “pharmacologically achievable plasma levels” value ([1]; doses of 18.4 g/m^2 and higher) is given as at least 8 mM. The “Plasma concentrations achieved in clinical trials” value ([1]; in vivo) was 10000 µM, the pharmacologically achievable concentrations ([1]; in vivo) was 6-10 mM and the Cmax ([1]; read-out: Cmax values in plasma, dose of 18.4 g/m^2) was ≥ 10000 µM and ~10000 µM. The Cmax ([1]; read-out: Cmax values in plasma, doses as high as 41 g/m^2, typical) was about 10000 µM, the Cmax ([1]; read-out: typical Cmax values, administered at 18 g/m^2) was about 10000 µM and the “mode of action on Trx” value (TrxR/Trx system) was “alternative substrate inhibitor”. The “NADPH oxidation by TrxR and Trx” value (TrxR/Trx system; increasing concentrations of test substance) was “increases”, the “activity of Tavocept-modified Prx versus Apo-Prx” value (recombinant human Prx 1) was “less active” and the “Cellular consequence of BNP7787-modification and/or modulation: MET” value [2] was “Modification of non-active site cysteine(s) resulting in enzyme”. The “ERCC1 cysteine residue carrying Tavocept-derived mesna adduct” value (Recombinant human ERCC1) was “Cys238; also recorded: Cys274” and the “Cellular consequence of BNP7787-modification and/or modulation: Prx” value (Peroxiredoxin (Prx)) was “BNP7787 disrupts active site structure (Prx) resulting in impaired”.

Source: patent publication US20170007561A1, “CONTEMPORANEOUS, HETEROGENEOUSLY-ORIENTED, MULTI-TARGETED THERAPEUTIC MODIFICATION AND/OR MODULATION OF DISEASE BY ADMINISTRATION OF SULFUR-CONTAINING, AMINO ACID-SPECIFIC SMALL MOLECULES” (BioNumerik Pharmaceuticals, Inc., priority 2014, published 2017)
